The target of experiment [1] is Heat shock protein HSP 90-alpha (Homo sapiens, UniProt P07900). It counts as functional, organism-based.
In experiment [2] the target is T1, Apoptotic protease-activating factor 1 (Homo sapiens, UniProt O14727).
T1 sequence (O14727 whole entry): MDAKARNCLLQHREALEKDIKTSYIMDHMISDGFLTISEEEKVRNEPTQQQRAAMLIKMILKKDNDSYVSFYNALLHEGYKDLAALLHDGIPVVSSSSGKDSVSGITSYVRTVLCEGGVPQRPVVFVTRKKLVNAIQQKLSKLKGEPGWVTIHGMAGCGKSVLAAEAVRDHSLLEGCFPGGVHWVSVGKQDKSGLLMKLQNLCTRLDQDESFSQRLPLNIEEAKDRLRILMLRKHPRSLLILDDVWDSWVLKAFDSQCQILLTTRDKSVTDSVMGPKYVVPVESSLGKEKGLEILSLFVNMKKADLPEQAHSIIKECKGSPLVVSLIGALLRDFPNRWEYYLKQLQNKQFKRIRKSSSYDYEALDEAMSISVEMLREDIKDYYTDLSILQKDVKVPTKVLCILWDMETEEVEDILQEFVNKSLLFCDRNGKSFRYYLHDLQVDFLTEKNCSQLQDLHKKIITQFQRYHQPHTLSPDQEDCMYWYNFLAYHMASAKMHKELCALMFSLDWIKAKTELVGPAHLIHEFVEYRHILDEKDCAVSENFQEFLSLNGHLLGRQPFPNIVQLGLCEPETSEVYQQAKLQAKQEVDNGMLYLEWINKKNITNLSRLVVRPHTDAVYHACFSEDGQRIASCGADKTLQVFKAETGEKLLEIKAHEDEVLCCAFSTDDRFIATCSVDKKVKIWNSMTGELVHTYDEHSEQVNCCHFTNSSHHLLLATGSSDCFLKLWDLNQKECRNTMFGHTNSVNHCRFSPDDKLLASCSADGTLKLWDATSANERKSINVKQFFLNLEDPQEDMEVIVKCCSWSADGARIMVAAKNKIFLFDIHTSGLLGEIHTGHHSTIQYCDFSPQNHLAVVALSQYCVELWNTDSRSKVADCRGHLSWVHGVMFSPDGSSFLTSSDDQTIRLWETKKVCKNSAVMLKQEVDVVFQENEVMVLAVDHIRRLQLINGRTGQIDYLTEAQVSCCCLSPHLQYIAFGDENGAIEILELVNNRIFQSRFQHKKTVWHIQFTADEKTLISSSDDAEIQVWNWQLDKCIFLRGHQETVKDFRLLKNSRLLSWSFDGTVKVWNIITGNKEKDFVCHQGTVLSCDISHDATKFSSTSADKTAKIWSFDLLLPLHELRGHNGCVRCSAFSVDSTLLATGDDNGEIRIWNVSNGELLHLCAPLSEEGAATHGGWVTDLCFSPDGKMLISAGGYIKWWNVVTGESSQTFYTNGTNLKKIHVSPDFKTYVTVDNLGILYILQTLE
It is filed as functional.

Experiment [3] has as its target T2, DNA repair protein RAD52 homolog (Homo sapiens, UniProt P43351).
T2 sequence (P43351 whole entry): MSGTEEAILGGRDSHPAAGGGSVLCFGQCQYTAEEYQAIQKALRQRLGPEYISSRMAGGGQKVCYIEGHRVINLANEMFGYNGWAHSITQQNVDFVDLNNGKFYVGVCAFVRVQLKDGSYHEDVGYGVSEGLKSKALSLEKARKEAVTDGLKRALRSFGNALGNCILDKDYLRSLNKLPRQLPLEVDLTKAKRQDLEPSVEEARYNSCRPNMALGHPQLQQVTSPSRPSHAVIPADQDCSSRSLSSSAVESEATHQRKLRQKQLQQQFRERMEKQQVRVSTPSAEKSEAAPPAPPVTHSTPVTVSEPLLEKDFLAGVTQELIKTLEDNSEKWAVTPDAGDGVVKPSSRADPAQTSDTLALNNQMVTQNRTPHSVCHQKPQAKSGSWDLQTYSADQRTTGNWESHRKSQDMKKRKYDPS
It is filed as functional, biochemical.

For experiment [4], the target named is T3, Bcl-2-related protein A1 (Mus musculus, UniProt Q07440).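 Further: confirmatory dose–response counterscreen on Bfl-1, used to check hits from a UBC13 polyubiquitin inhibitor campaign.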
T3 sequence (Q07440 whole entry): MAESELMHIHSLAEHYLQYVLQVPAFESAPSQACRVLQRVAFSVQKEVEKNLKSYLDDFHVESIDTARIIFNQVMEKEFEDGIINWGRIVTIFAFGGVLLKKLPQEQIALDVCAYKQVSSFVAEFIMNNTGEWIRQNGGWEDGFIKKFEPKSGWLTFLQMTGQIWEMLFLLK
It counts as functional.

Experiment [5] deals with T4, Ubiquitin-conjugating enzyme E2 N (Homo sapiens, UniProt P61088).
T4 sequence (P61088 whole entry): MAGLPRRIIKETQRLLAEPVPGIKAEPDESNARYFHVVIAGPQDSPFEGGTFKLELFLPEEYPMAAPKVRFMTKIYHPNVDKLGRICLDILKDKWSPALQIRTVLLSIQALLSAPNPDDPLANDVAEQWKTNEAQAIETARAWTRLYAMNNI
It counts as functional.

Experiment [6] deals with T4, Ubiquitin-conjugating enzyme E2 N. It counts as functional. This is another data set of the same source.
Experiment [7] has as its system INS1. In words: INS-1E survival protection against cytokine death – cell-based, luminescence, retest, dose response (AID 449756).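 Further: cell death triggered by IL-1 beta plus TNF-alpha plus IFN-gamma mixture; protective hits raise ATP signal compared with cytokine alone wells.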 The conditions noted are these: Rattus norvegicus. It counts as functional.
In experiment [8] the target is T5, Endoribonuclease toxin MazF (Escherichia coli K-12, UniProt P0AE70).
T5 sequence (P0AE70 whole entry): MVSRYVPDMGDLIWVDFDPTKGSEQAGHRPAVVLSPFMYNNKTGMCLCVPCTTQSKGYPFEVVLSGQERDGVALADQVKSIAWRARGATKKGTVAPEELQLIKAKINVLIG
In words: activation of MazEF endoribonuclease cleavage – biochemical, fluorescence, single-stranded RNA substrate, uHTS hits, dose response (AID 588481). It counts as functional.

Experiment [9] deals with T5, Endoribonuclease toxin MazF. In words: substrate-only fluorescence increase artefacts – biochemical, single-stranded RNase substrate, counter-screen for MazEF activator project, dose response (AID 588502). It is filed as functional.
For experiment [10], the target named is 72 kDa type IV collagenase (Homo sapiens, UniProt P08253). In words: Dose Response validation of uHTS RPN11 inhibitor hits using a MMP-2 Fluorescence assay. It is filed as functional.
Sequence of 72 kDa type IV collagenase (P08253 whole entry): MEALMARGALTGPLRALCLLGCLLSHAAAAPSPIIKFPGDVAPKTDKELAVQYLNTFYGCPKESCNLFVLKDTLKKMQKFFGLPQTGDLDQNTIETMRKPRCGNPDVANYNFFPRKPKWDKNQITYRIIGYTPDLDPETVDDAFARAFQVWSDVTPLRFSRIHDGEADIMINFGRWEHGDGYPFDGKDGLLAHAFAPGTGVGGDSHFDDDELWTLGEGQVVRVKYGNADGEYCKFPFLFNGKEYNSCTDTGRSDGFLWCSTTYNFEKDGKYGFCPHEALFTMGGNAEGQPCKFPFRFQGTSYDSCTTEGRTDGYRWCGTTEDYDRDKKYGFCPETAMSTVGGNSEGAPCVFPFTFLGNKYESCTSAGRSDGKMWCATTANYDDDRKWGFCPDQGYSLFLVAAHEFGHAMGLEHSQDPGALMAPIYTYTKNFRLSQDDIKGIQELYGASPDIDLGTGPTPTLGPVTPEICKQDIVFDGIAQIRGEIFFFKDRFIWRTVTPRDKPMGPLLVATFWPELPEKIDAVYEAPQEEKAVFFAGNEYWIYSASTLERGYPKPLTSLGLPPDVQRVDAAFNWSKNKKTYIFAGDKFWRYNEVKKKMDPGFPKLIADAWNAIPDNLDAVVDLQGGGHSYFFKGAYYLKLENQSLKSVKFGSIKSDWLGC
Experiment [11] concerns the target Prothrombin (Bos taurus, UniProt P00735). In words: thrombin protease inhibitors – biochemical, fluorescence polarization, uHTS hits, dose response (AID 602369). It counts as functional.
Experiment [12] has as its target 26S proteasome non-ATPase regulatory subunit 14 (Homo sapiens, UniProt O00487). Description: inhibition of proteasome subunit RPN11 – biochemical, fluorescence polarization, uHTS hits, confirmation (AID 602368). It counts as functional.
In experiment [13] the target is T6, Carboxy-terminal domain RNA polymerase II polypeptide A small phosphatase 1 (Homo sapiens, UniProt Q9GZU7).
T6 sequence (Q9GZU7 whole entry): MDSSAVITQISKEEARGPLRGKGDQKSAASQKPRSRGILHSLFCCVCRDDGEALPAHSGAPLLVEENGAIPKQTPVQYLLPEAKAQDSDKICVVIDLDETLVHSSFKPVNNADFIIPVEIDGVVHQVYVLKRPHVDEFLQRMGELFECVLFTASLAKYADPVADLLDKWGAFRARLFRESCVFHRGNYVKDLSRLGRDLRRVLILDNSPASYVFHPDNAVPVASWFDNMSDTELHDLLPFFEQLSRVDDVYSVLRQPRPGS
In words: CTDSP1 inhibitors, concentration-response, biochemical, absorbance readout, ultra-high-throughput screen actives (AID 540297). It is filed as functional.

The target in experiment [14] is T7, Aminopeptidase N (Plasmodium falciparum FcB1/Columbia, UniProt O96935).
T7 sequence (O96935 whole entry): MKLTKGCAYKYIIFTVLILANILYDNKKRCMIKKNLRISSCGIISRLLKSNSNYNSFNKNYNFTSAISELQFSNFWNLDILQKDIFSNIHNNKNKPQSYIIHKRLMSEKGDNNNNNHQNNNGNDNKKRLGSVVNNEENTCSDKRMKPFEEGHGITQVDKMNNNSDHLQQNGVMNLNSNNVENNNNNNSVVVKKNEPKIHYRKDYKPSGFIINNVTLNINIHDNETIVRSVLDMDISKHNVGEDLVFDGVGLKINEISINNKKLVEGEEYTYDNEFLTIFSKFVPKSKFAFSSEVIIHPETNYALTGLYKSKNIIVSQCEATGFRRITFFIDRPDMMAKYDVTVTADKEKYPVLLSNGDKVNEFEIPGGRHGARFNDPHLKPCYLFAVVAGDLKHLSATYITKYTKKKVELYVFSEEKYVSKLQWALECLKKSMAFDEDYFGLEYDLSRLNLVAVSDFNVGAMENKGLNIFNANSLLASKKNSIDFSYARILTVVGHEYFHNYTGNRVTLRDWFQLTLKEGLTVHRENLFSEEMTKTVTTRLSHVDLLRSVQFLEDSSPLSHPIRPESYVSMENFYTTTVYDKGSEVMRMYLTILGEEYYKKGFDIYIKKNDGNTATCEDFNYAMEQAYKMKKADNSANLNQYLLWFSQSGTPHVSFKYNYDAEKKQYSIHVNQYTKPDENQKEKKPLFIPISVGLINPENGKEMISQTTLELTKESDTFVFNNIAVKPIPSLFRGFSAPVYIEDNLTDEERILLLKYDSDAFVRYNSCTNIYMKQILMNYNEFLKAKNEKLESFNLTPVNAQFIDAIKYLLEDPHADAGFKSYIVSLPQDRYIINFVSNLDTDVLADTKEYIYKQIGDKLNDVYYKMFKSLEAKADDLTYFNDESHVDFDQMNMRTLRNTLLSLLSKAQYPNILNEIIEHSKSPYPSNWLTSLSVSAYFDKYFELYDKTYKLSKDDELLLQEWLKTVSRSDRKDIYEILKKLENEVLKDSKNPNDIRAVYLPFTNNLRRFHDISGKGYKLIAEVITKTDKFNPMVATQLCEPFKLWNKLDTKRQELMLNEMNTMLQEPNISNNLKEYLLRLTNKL
In words: malaria alanyl aminopeptidase activity blockers – biochemical, fluorogenic H-Leu-NHMec substrate, 1536-well (AID 1445). Details: species or system Plasmodium falciparum 3D7, 3D7.

Experiment [15] deals with T8, Small ubiquitin-related modifier 1 (Homo sapiens, UniProt P63165). In words: SUMO1 protein interaction blockers, potency – biochemical, fluorescence polarization, uHTS hits, dose response (AID 624382). It counts as functional. Particulars: read-out: IC50_Mean.
T8 sequence (P63165 whole entry): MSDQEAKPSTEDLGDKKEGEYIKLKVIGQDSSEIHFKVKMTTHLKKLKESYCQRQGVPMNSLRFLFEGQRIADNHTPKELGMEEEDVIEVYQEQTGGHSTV
Experiment [16] addresses T8, Small ubiquitin-related modifier 1. In words: SUMO1 protein-protein binding blockers, potency – biochemical, FRET, dose response (AID 624383). It is filed as functional. The conditions noted are these: read-out: IC50_Mean.
For experiment [17], the system named is P388/ADR. Description: cells. Particulars: Mus musculus. It counts as functional.
Experiment [18] has as its system SN12K1. In words: cells. It is filed as functional. Particulars: Homo sapiens.
Experiment [19] can be described thus: activation of miR-122 Renilla sensor silencing – cell-based, Huh7 psiCHECK-miR122, Renilla luciferase, cherry-picked, dose response (AID 651956).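 Further: huh7 hepatoma cells stably carrying a psiCHECK-2 miR-122 sensor plasmid; renilla luciferase signal reporting endogenous miR-122 activity after 48 h compound exposure.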 It counts as functional.

SMILES strings stand for the structures. Calls of active or inactive are those of the source. Where only a bound is given, the exact number is not on record here.

Sequence of 26S proteasome non-ATPase regulatory subunit 14 (O00487 whole entry, the tested form may be a part): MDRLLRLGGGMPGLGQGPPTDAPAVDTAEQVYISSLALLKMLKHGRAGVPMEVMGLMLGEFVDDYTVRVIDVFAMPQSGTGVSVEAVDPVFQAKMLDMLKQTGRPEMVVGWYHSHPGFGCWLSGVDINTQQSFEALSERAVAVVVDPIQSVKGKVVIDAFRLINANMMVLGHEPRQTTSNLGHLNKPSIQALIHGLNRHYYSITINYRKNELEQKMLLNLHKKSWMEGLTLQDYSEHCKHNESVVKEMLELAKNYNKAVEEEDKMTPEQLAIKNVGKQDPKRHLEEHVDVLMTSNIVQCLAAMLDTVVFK

Take `Cc1cc(C(C)(C)CC(C)(C)C)ccc1OCCOCC[N+](C)(C)Cc1ccccc1`: the figures for the AC50 in [1], in experiment [3] and in experiment [7] were 7.56 µM (active), 20.4 µM (active) and 2.41 µM (active), respectively. Further, the IC50 in experiment [2] was 21.3 µM (active); in experiment [4], 14.9 µM (active); in experiment [5] it was 8.92 µM (active); in experiment [6] it was 9.49 µM (active).
Turning to `O=C(C1=NN[C@@H]2C(=O)N(c3cccc(C(F)(F)F)c3)C(=O)[C@H]12)c1ccc2ccccc2n1`, the EC50 in experiment [8] is 47.9 µM (inactive); in experiment [9] it was > 99 µM (inactive).
For `CN(C(=O)COC(=O)c1ccc([N+](=O)[O-])cc1N)c1ccccc1`, the EC50 in [8] and in experiment [9] was > 99 µM (inactive) throughout.
For `Cn1cncc1C#Cc1ccc2cc(C3(O)CCCCC3)oc(=O)c2c1`, the values for the IC50 in experiment [10], in experiment [11] and in experiment [12] were > 100 µM (inactive), 53.3 µM (active) and 32.5 µM (active), respectively.
With `COc1ccccc1N1C(=N)S/C(=C\c2ccc(-c3ccccc3C(=O)O)o2)C1=O`, the IC50 in experiment [10] was > 100 µM (inactive); in experiment [13], 8.51 µM (active); in experiment [11], 68.5 µM (active); in experiment [12], 24.8 µM (active); in experiment [14], 21.7 µM (active).
For the compound `CC(=O)Nc1ccc(C(=O)CSc2cc(C)c3cccc(C)c3n2)cc1`, the EC50 in experiment [8] and in experiment [9] was > 99 µM (inactive) in each case.
On to `COc1ccc(-n2c(SCC(=O)Nc3cccc(S(N)(=O)=O)c3)nc3ccccc3c2=O)cc1OC`, for which the figures for the IC50 in experiment [15] and in experiment [16] were > 66.6 µM (inactive) and 4.19 µM (active), respectively.
As to `C=CCn1c(COc2cccc(C)c2)nnc1SC(C)C(=O)NC1CC1` (stereo not given), the IC50 in [2] is > 100 µM (inactive).
Consider `C/C(=C/c1c(C)[nH]c(=O)[nH]c1=O)C(=O)O`, for which the GI50 in experiment [17] was 813 µM (inactive); in [18] it was > 1370 µM (inactive).
Turning to `CCC(=O)N(C)C[C@@H]1[C@H](c2ccc(-c3ccccc3F)cc2)[C@H](CO)N1C(C)=O`, in experiment [19], the concentration at half-maximal activity (AC50) is 49.5 µM (active).
As for `CN1C(=O)c2cc(NC(=O)c3cccc(F)c3)ccc2OC[C@@H]2O[C@H](CC(=O)O)CC[C@H]21`, in experiment [19], the AC50 is 51.2 µM (active).
Consider `CCCCCCC(=O)Nc1nc(C)c(-c2csc(Nc3cc(OC)ccc3OC)n2)s1`, for which the results for the IC50 in [15] and in experiment [16] were > 66.6 µM (inactive) and 11.2 µM (active), respectively.

Values taken from ChEMBL document CHEMBL1201862, “PubChem BioAssay data set” (2004).
